The text below walks through data of article PMC6302903, “Protein and Chemical Determinants of BL-1249 Action and Selectivity for K2P Channels” (ACS Chemical Neuroscience, 2018).

Common to all, as to assay type: cell-based
One assay deals with T1, K2P2.1(TREK-1)Δ322 (Mus musculus, UniProt P97438).
T1 construct: truncations at residue 322, K2P2.1(TREK-1)Δ322, equivalent to a previously described mutant called Δ89; expressed in transfected cells; host or cells: Xenopus laevis oocytes, mRNA injected
T1 sequence (P97438 1-322 isoform P97438-2): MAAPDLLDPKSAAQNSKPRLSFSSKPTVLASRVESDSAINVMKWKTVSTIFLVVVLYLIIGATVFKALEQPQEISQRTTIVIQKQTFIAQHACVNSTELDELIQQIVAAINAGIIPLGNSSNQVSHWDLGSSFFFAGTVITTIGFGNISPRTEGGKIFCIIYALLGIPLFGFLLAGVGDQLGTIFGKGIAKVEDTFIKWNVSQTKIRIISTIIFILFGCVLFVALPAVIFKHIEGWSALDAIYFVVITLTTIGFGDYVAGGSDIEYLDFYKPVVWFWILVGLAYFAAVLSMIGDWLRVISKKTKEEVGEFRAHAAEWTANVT
The experiment in a line: TEVC of C-terminal truncation at residue 322. The following applies: Xenopus oocytes, saturation not reached, fit with upper boundary of 15 (I/I0). An excerpt: Constructs for murine K2P channels, including K2P2.1(TREK-1) (Gene ID 16526), K2P10.1(TREK-2) (Gene ID 72258), K2P4.1(TRAAK) (Gene ID 16528), K2P5.1(TASK-2) (Gene ID 16529), K2P3.1(TASK-1) (Gene ID 16527), K2P9.1(TASK-3) (Gene ID 223604), and K2P18.1(TRESK) (Gene ID 332396) in pGEMHE/pMO, were used for Xenopus oocyte experiments as previously described.[10],[26] Murine K2P2.1(TREK-1) (Gene ID 16526) was expressed in HEK-293 cells using a pIRES-EGFP construct as previously described.[26] Murine K2P13.1(THIK-1) (Gene ID 217826) and K2P1.1(TWIK-1) (Gene ID 16525) were cloned into pGEMHE/pMO for use in Xenopus oocytes. […]
(§1) Xenopus laevis oocytes were harvested in accordance with UCSF IACUC protocol AN129690 and digested in calcium-free ND-96 (96 mM NaCl, 2 mM KCl, 3.8 mM MgCl2) immediately following harvest, as previously described.[6],[10] […] Defolliculated stage V–VI oocytes were injected with 0.2–6.0 ng of mRNA in 50 nL, and currents were recorded 24–48 h after injection. mRNA was synthesized from plasmid DNA using mMessage mMachine Kit (T7 promoter, Ambion, Life Technologies) and purified using RNEasy Kit (Qiagen). […] Once stabilized basal currents were recorded, compounds were perfused at various concentrations in standard ND96 and currents were allowed to increase to stabilization before recording final current. […]

For the next assay, the target named is TREK-1/AAK_T (Mus musculus, UniProt P97438). Description: TEVC of C-terminal tail swap chimera TREK-1/AAK_T. As to conditions: Xenopus oocytes.
TREK-1/AAK_T, sequence (P97438 1-292 isoform P97438-2 limits assumed): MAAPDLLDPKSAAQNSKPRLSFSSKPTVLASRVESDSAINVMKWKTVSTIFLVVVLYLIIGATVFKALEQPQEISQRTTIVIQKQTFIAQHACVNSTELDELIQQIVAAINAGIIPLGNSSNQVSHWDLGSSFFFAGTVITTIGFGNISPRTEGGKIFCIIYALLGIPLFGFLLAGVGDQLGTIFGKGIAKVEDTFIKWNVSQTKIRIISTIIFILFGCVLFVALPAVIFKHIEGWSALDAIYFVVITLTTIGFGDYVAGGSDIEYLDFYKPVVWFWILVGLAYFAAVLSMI
Excerpt: Given the importance of the C-terminal tail for the BL-1249 response and the fact that the C-terminal tails of K2P2.1(TREK-1) and K2P4.1(TRAAK) vary substantially (17.6% sequence similarity, 13.5% identity), we wondered if these differences could contribute to the different potencies observed in K2P2.1(TREK-1) and K2P4.1(TRAAK) BL-1249 responses. To test this possibility, we made chimeras that swapped the C-terminal tail between K2P2.1(TREK-1) and K2P4.1(TRAAK), TREK-1/AAK_T and TRAAK/EK_T. […] Despite this modest change, it is clear that the C-terminal tail alone is not sufficient to endow the K2P4.1(TRAAK) core with a K2P2.1(TREK-1)-like BL-1249 response. […]
as §1

Another assay addresses T2, K2P3.1(TASK-1) (Mus musculus, UniProt O35111).
T2 construct: expressed in transfected cells; host or cells: Xenopus laevis oocytes injected with mRNA made from pGEMHE/pMO
Description: TEVC of K2P3.1(TASK-1) in Xenopus oocytes. As to conditions: concentrations up to the solubility limit (∼80 μM). The protocol:
(§2) BL-1249 activates K2P2.1(TREK-1)[18],[40] and K2P10.1(TREK-2),[7] but its effects on other K2P channels have not been characterized. […] In order to test if the original 10 μM assay had missed BL-1249 effects in other K2P channels, we tested concentrations of BL-1249 up to the solubility limit (∼80 μM) against the other K2P subfamily representatives. […]
as §1, with “current. Fold activation upon compound application is expressed as I/I0 (0 mV), derived from the current at 0 mV in the presence of compound divided by the basal current at 0 mV in standard ND96 without compound. Data were analyzed and plotted using Graphpad Prism Version 5 (GraphPad Software, San Diego California USA, www.graphpad.com).” for “current.”

In a further assay the target is T3, K2P13.1(THIK-1) (Mus musculus, UniProt Q8R1P5).
T3 construct: expressed in transfected cells; host or cells: Xenopus laevis oocytes (mRNA injection, pGEMHE/pMO)
T3 sequence (Q8R1P5 whole entry): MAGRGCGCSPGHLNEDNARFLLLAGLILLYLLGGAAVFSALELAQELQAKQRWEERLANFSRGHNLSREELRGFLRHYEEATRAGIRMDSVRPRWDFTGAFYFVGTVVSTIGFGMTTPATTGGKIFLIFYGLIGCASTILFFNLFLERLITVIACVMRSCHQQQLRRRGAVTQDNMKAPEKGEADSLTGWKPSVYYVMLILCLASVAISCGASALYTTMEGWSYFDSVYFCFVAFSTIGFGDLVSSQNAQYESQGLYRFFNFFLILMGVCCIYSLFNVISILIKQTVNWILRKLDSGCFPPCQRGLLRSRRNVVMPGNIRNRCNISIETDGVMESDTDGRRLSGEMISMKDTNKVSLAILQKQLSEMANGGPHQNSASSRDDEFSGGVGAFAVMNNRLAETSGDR
Description: TEVC of K2P13.1(THIK-1) in Xenopus oocytes. As to conditions: concentrations up to the solubility limit (∼80 μM). The protocol: as §2
as §1, with “current. Fold activation upon compound application is expressed as I/I0 (0 mV), derived from the current at 0 mV in the presence of compound divided by the basal current at 0 mV in standard ND96 without compound. Data were analyzed and plotted using Graphpad Prism Version 5 (GraphPad Software, San Diego California USA, www.graphpad.com).” for “current.”

The target in the next assay is TREK-1/AAK M2-C (Mus musculus, UniProt O88454+P97438). The experiment in a line: TEVC of chimera TREK-1/AAK M2-C. The following applies: Xenopus oocytes.
TREK-1/AAK M2-C, sequence (P97438 16-167): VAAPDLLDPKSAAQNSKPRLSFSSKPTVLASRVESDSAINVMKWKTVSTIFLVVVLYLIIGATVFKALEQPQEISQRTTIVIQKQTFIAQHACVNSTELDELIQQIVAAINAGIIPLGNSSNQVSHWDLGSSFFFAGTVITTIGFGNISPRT
TREK-1/AAK M2-C, sequence (O88454 115-398): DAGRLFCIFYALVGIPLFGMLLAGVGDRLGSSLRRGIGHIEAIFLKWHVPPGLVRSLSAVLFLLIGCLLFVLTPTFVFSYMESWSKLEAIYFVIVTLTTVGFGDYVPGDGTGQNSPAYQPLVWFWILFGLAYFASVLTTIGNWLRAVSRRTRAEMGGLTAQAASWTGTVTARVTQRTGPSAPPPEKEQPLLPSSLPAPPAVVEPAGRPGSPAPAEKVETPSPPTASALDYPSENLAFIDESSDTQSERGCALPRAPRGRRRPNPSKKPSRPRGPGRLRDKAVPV

T2 sequence (O35111 whole entry): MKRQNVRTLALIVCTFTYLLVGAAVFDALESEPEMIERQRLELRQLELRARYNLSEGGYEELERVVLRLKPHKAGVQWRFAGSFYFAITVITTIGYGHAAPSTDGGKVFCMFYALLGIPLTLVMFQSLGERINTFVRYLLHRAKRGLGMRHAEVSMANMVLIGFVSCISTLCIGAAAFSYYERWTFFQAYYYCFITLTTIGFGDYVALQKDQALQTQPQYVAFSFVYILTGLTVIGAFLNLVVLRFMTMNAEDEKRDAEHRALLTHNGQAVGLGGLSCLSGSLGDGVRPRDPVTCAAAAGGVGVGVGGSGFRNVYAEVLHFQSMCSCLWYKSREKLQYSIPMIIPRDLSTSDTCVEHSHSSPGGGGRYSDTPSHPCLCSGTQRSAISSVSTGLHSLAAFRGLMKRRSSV

Consider `c1ccc(-c2nnn[nH]2)c(Nc2cccc3c2CCCC3)c1` [BL-1249, (5,6,7,8-tetrahydro-naphthalen-1-yl)-[2-(1H-tetrazol-5-yl)-phenyl]-amine], for which the half-maximal effective concentration (EC50) came out at 26 ± 8 µM at K2P2.1(TREK-1)Δ322 and 7.7 ± 0.6 µM at TREK-1/AAK_T. Further, on K2P3.1(TASK-1), the “activation of K2P3.1(TASK-1)” value is on record as “failed to find evidence for activation”. In addition, on K2P13.1(THIK-1), the “activation of K2P13.1(THIK-1)” value is reported as “failed to find evidence for activation”.

On TREK-1/AAK M2-C, `CS(=O)(=O)Nc1ccc(C(=O)NCc2ccc(Cl)cc2Cl)cc1` [ML335] showed an EC50 above 100 µM.
